# Laboratory results taken from ChEMBL document CHEMBL4251629, “BODIPYs to the rescue: Potential applications in photodynamic inactivation” (2018).
# Columns and labels:
# Escherichia coli [1] = experiment: Photodynamic antibacterial activity against ROS-induced stressed Escherichia coli ATCC 25922 assessed as log reduction in viable cells at 10 uM preincubated for 1 hr followed by 9.36 J/cm2 irradiation for 2 hrs mins by fluorescence microscopy; format: functional
# Escherichia coli [2] = experiment: Photodynamic antibacterial activity against Escherichia coli DH5alpha assessed as log reduction in viable cells 10 uM preincubated for 20 mins followed by 180 J/cm2 irradiation for 60 mins by fluorescence microscopy; format: functional, DH5[alpha]
# Staphylococcus aureus [3] = experiment: Photodynamic antibacterial activity against Staphylococcus aureus NRS11 assessed as log reduction in viable cells at 10 uM preincubated for 20 mins followed by 180 J/cm2 irradiation for 60 mins by fluorescence microscopy; format: functional
# Klebsiella pneumoniae = experiment: Photodynamic antibacterial activity against Klebsiella pneumoniae subsp. pneumoniae ATCC 33495 assessed as log reduction in viable cells at 10 uM preincubated for 20 mins followed by 180 J/cm2 irradiation for 60 mins by fluorescence microscopy; format: functional
# Bacillus thuringiensis = experiment: Photodynamic antibacterial activity against Bacillus thuringiensis NRS 1124 ATCC 19268 assessed as log reduction in viable cells at 10 uM preincubated for 20 mins followed by 180 J/cm2 irradiation for 60 mins by fluorescence microscopy; format: functional
# Staphylococcus aureus [4] = experiment: Photodynamic antibacterial activity against Staphylococcus aureus ATCC 25923 assessed as log reduction in viable cells at 1 uM preincubated for 30 mins followed by immediate irradiation at 21 J/cm2 in presence of 50 mM KI by fluorescence microscopy; format: functional
# Escherichia coli [5] = experiment: Photodynamic antibacterial activity against Escherichia coli EC7 assessed as log reduction in viable cells at 5 uM preincubated for 30 mins followed by immediate irradiation at 63 J/cm2 in presence of 50 mM KI by fluorescence microscopy; format: functional
# Candida albicans [6] = experiment: Photodynamic antibacterial activity against Candida albicans PC31 assessed as log reduction in viable cells at 5 uM preincubated for 30 mins followed by immediate irradiation at 126 J/cm2 in presence of 50 mM KI by fluorescence microscopy; format: functional
# Escherichia coli [7] = experiment: Photodynamic antibacterial activity against ROS-induced stressed Escherichia coli ATCC 25922 assessed as log reduction in viable cells at 10 uM preincubated for 30 mins followed by 3.6 J/cm2 irradiation for 1 hr mins by fluorescence microscopy; format: functional
# Candida albicans [8] = experiment: Photodynamic antifungal activity against Candida albicans ATCC 90028 assessed as log reduction in viable cells at 1 uM in presence of 118 J/cm2 irradiation; format: functional
# dengue virus type 1 = experiment: Photodynamic antiviral activity against Dengue virus 1 infected in African green monkey Vero cells assessed as log reduction in viable cells at 0.1 uM in presence of 118 J/cm2 irradiation; format: functional
# Nakaseomyces glabratus = experiment: Photodynamic antifungal activity against Candida glabrata ATCC 15545 assessed as log reduction in viable cells at 1 uM in presence of 118 J/cm2 irradiation; format: functional
# Cryptococcus neoformans = experiment: Photodynamic antifungal activity against Cryptococcus neoformans ATCC 6453 assessed as log reduction in viable cells at 0.5 uM in presence of 118 J/cm2 irradiation; format: functional
# [9] = system: Mycolicibacterium smegmatis; experiment: Photodynamic antibacterial activity against Mycobacterium smegmatis MC2 155 assessed as log reduction in viable cells at 0.5 uM in presence of 118 J/cm2 irradiation; format: functional, str. MC2 155
# Human adenovirus 5 = experiment: Photodynamic antiviral activity against Human adenovirus 5 infected in African green monkey Vero cells assessed as log reduction in viable cells at 5 uM in presence of 118 J/cm2 irradiation; format: functional
# [10] = system: Vesicular stomatitis virus; experiment: Photodynamic antiviral activity against vesicular stomatitis virus NJ infected in African green monkey Vero cells assessed as log reduction in viable cells at 0.5 uM in presence of 118 J/cm2 irradiation; format: functional, Vesicular stomatitis New Jersey virus
# Pseudomonas aeruginosa = experiment: Photodynamic antibacterial activity against Pseudomonas aeruginosa PAO1 assessed as log reduction in viable cells at 2.5 uM preincubated for 30 mins followed by 171 J/cm'2 irradiation for 1 hr by confocal laser scanning microscopy; format: functional
smiles,measurement,setting,value
CC1=C(Br)C(C)=[N+]2C1C(CC1(C)CCc3c(C)c(O)c(C)c(C)c3O1)c1c(C)c(Br)c(C)n1[B-]2(F)F (configuration not stated),log(activity),Escherichia coli [1],5.5
CC1=C(I)C(C)=[N+]2C1C(c1cc(CN(Cc3ccccn3)Cc3ccccn3)cc(CN(Cc3ccccn3)Cc3ccccn3)c1)c1c(C)c(I)c(C)n1[B-]2(F)F (configuration not stated),log(activity),Escherichia coli [2],3.5
same,log(activity),Staphylococcus aureus [3],4.5
same,log(activity),Klebsiella pneumoniae,2.2
same,log(activity),Bacillus thuringiensis,4.5
CC1=CC(C)=[N+]2C1C(c1ccc(OCCC[N+](C)(C)C)cc1)c1c(C)cc(C)n1[B-]2(F)F (configuration not stated),log(activity),Staphylococcus aureus [4],4.5
same,log(activity),Escherichia coli [5],6.5
same,log(activity),Candida albicans [6],3.5
CC1=CC(C)=[N+]2C1C(c1ccc([N+](C)(C)C)cc1)c1c(C)cc(C)n1[B-]2(F)F (configuration not stated),log(activity),Staphylococcus aureus [4],5
same,log(activity),Escherichia coli [5],3.5
same,log(activity),Candida albicans [6],5.5
CC(=O)OCC1c2c(C)c(Br)c(C)n2[B-](F)(F)[N+]2=C(C)C(Br)=C(C)C12 (configuration not stated),log(activity),Escherichia coli [7],5.5
CC(=O)OCC1c2c(C)c(I)c(C)n2[B-](F)(F)[N+]2=C(C)C(I)=C(C)C12 (configuration not stated),log(activity),Escherichia coli [7],5.5
CC1=C(I)C(C)=[N+]2C1C(c1cc[n+](C)cc1)c1c(C)c(I)c(C)n1[B-]2(F)F (configuration not stated),log(activity),Candida albicans [8],5
same,log(activity),dengue virus type 1,6
same,log(activity),Nakaseomyces glabratus,3
same,log(activity),Cryptococcus neoformans,5
same,log(activity),[9],3
same,log(activity),Human adenovirus 5,2
same,log(activity),[10],5
same,log(activity),Pseudomonas aeruginosa,7
CC1=C(C)C2(OO)OC(C)(CC3c4c(C)c(Br)c(C)n4[B-](F)(F)[N+]4=C(C)C(Br)=C(C)C34)CCC2=C(C)C1=O (configuration not stated),log(activity),Escherichia coli [1],5.5
